Data as given in patent US4695569A, “Bicyclic heterocyclyl containing N-(bicyclic heterocyclyl)-4-piperidinamines” (Janssen Pharmaceutica N.V., priority 1987, dated 1987).
Like-named read-outs stand apart in the source and are kept apart here.

What was measured:
[1] = test system: compound 48/80-induced lethality; test: Protection of rats from compound 48/80-induced lethality; type: in vivo, rat (male, inbred Wistar strain); conditions: Rattus norvegicus, 4 h, read-out: Compound 48/80 lethality test in rats-ED50
Description: Protection of rats from compound 48/80-induced lethality
The protection from compound 48/80-induced lethal circulatory collapse appears to be a simple way of evaluating quantitatively the antihistaminic activity of test compounds. Male rats of an inbred Wistar strain, weighing 240-260 g were used in the experiment. After overnight starvation the rats were transferred to conditioned laboratories (temp.=21±1° C., relative humidity=65±5%).
The rats were treated subcutaneously or orally with a test compound or with the solvent (NaCl solution, 0.9%). […] Survival after 4 hours is therefore considered to be a safe criterion of a protective effect of drug administration.
The ED50 -values of the compounds of formula (I) are listed in the first column of table 1. Said ED50 -values are the values in mg/kg body weight at which the tested compounds protect 50% of the tested animals against compound 48/80-induced lethality.

serotonin = test: Antagonistic activity on the effects of serotonin in the gastric lesion test (lesions induced by compound 48/80); type: in vivo, rat (male, Wistar inbred strain)
Source text: The compounds of formula (I) and the pharmaceutically acceptable acid addition salts thereof are also potent serotonin-antagonists. The potency of the subject compounds as serotonin-antagonists is clearly evidenced by the results obtained in the following tests wherein the antagonistic activity of the subject compounds on the effect of serotonin is examined.
Antagonistic activity on the effects of serotonin in the gastric lesion test
Comound 48/80 (a mixture of oligomers obtained by condensation of 4-methoxy-N-methylbenzeneethanamine and formaldehyde) is a potent releaser of vasoactive amines from endogenous stores such as, for example, histamine and serotonin. […] The shock, followed by dead, can be avoided if the rats are pretreated with a classical H 1 antagonist.
Male rats of a Wistar inbred strain, weighing 220-250 g, were starved overnight, water being available ad libitum. The test compounds were administered orally as a solution or as a suspension in aqueous medium. A control rat and a "blank" rat received the test compound. One hour later 5-[4-(diphenylmethyl)-1-piperazinylmethyl]-1-methyl-1H-benzimidazole-2-methanol was administered subcutaneously to all rats at the dose of 2.5 mg/kg.
Four hours after the intravenous injection of compound 48/80, the rats were decapitated and the stomachs were removed. Subsequently the stomachs ere inspected for distension and contents (blood, fluid, food) and thoroughly rinsed. The macroscopic lesions were scored from 0 to +++, 0 corresponding to complete absence of visible lesions and the highest score corresponding to reddish rough patches covering more than half the glandular area.

[2] = Rattus norvegicus, po, 4 h, read-out: gastric lesion test ED50 (distension of the stomach and lesions in the glandular area completely absent in 50% of rats)
[3] = Rattus norvegicus, po, 4 h; read-out: gastric lesion test ED50 (distension of the stomach and lesions in the glandular area completely absent in 50% of rats)

Row | Structure (SMILES) | ED50 [1] | ED50 (serotonin; [2]) | ED50 (serotonin; [3])
1 | Cc1nc2n(c(=O)c1CCN1CCC(Nc3nc4ccccc4n3Cc3cscn3)CC1)CCCC2 [Compound 62] | 0.04 mg/kg | 0.63 mg/kg | –
2 | Cc1nc2ccc(Cl)cn2c(=O)c1CCN1CCC(Nc2nc3cccnc3n2Cc2ccco2)CC1 [Compound 21] | 0.04 mg/kg | – | 0.63 mg/kg
3 | CCOC(=O)N1CCc2nc(NCCN3CCC(Nc4nc5ccccc5n4Cc4ccc(F)cc4)CC3)sc2C1 [Compound 147, ethyl 2-[[2-[4-[[1-[4-fluorophenyl)methyl]-1H-benzimidazol-2-yl]amino]-1-piperidinyl]ethyl]amino]-4,5-dihydro-thiazolo[4,5-d]pyridine-6(7H)-carboxylate (E)-2-butenedioate (1:2) monohydrate] | 0.31 mg/kg | – | 0.63 mg/kg
4 | Cc1nc2scc(C)n2c(=O)c1CCN1CCC(Nc2nc3ccccc3n2Cc2ccc(F)cc2)CC1 [Compound 1, 6-[2-[4-[[1-[(4-fluorophenyl)methyl]-1H-benzimidazol-2-yl]amino]-1-piperidinyl]ethyl]-3,7-dimethyl-5H-thiazolo[3,2-a]pyrimidin-5-one] | 0.31 mg/kg | – | 0.63 mg/kg
5 | Cc1nc2nc(NCCN3CCC(Nc4nc5ccccc5n4Cc4ccc(F)cc4)CC3)ccc2[nH]1 [Compound 146, N-[2-[4-[[1-[(4-fluorophenyl)methyl]-1H-benzimidazol-2-yl]amino]-1-piperidinyl]ethyl]-2-methyl-1H-imidazo[4,5-b]pyridin-5-amine] | 0.04 mg/kg | – | 0.08 mg/kg
6 | Cc1nc2n(c(=O)c1CCN1CCC(Nc3nc4cccnc4n3Cc3ccco3)CC1)CC(C)CC2 (centres unmarked) [Compound 58] | 0.04 mg/kg | – | 0.63 mg/kg
7 | c1coc(Cn2c(NC3CCN(CCNc4nc5cnccc5[nH]4)CC3)nc3cccnc32)c1 [Compound 119] | 0.04 mg/kg | – | 0.63 mg/kg
8 | Fc1ccc(Cn2c(NC3CCN(Cc4cn5cccnc5n4)CC3)nc3ccccc32)cc1 [Compound 40] | 0.16 mg/kg | 0.16 mg/kg | –
9 | Cc1nc2ccccn2c(=O)c1CCN1CCC(Nc2nc3ccccc3n2Cc2ccco2)CC1 [Compound 5] | 0.16 mg/kg | – | 0.04 mg/kg
10 | Fc1ccc(Cn2c(NC3CCN(CCCNc4nc5cnccc5[nH]4)CC3)nc3ccccc32)cc1 [Compound 122, N-[3-[4-[[1-[(4-fluorophenyl)methyl]-1H-benzimidazol-2-yl]amino]-1-piperidinyl]propyl]-1H-imidazo[4,5-c]pyridin-2-amine ethanedioate(2:7)] | 0.02 mg/kg | – | 0.63 mg/kg
11 | Cn1cnc2c1c(=O)n(CCN1CCC(Nc3nc4ccccc4n3Cc3ccco3)CC1)c(=O)n2C [Compound 11] | 0.08 mg/kg | – | 0.04 mg/kg
12 | Cl.Cl.Cl.Fc1ccc(Cn2c(NC3CCN(Cc4cn5c(n4)CNCC5)CC3)nc3ccccc32)cc1 [Compound 152, 1-[(4-fluorophenyl)methyl]-N-[1-[(5,6,7,8-tetrahydroimidazo[1,2-a]pyrazin-2-yl)methyl]-4-piperidinyl]-1H-benzimidazol-2-amine trihydrochloride] | 0.08 mg/kg | – | 0.63 mg/kg
13 | Cc1nc2ccccn2c(=O)c1CCN1CCC(Nc2nc3ccccc3n2Cc2ccc(F)cc2)CC1 [Compound 4] | 0.16 mg/kg | 0.31 mg/kg | –
14 | Cc1nc2ccccn2c(=O)c1CCN1CCC(Nc2nc3cccnc3n2Cc2ccco2)CC1 [Compound 6] | 0.08 mg/kg | – | 0.63 mg/kg
15 | Cn1c(=O)c2c(ncn2CCN2CCC(Nc3nc4ccccc4n3Cc3ccco3)CC2)n(C)c1=O [Compound 39] | 0.16 mg/kg | – | 0.63 mg/kg
16 | Cc1nc2ccccn2c(=O)c1CCN1CCC(Nc2nc3cc(F)c(F)cc3n2Cc2ccc(F)cc2)CC1 [Compound 70] | 0.31 mg/kg | – | 0.63 mg/kg
17 | Cc1nc2scc(C)n2c(=O)c1CCN1CCC(Nc2nc3cccnc3n2Cc2ccc(F)cc2)CC1 [Compound 7] | 0.04 mg/kg | – | 0.31 mg/kg
18 | Fc1ccc(Cn2c(NC3CCN(CCNc4nc5cnccc5[nH]4)CC3)nc3cccnc32)cc1 [Compound 114] | 0.02 mg/kg | – | 0.63 mg/kg
19 | Cc1nc2scc(C)n2c(=O)c1CCN1CCC(Nc2nc3ccccc3n2Cc2ccco2)CC1 [Compound 9] | 0.08 mg/kg | – | 0.16 mg/kg
